ChEMBL document CHEMBL4376820, “Homodimeric Tobramycin Adjuvant Repurposes Novobiocin as an Effective Antibacterial Agent against Gram-Negative Bacteria” (J Med Chem, 2019)

Experiments:
Pseudomonas aeruginosa [1] = experiment: Synergistic antibacterial activity against wild type Pseudomonas aeruginosa PAO1 assessed as potentiation of ciprofloxacin-induced antibacterial effect incubated for 18 hrs by checkerboard assay relative to ciprofloxacin alone; assay type: functional
Acinetobacter baumannii [2] = experiment: Antibacterial activity against wild type Acinetobacter baumannii ATCC 17978 assessed as resistant development at 7.1 uM measured after 3 days of passaging in presence of novobiocin by microbroth dilution method relative to control; assay type: functional
Escherichia coli [3] = experiment: Potentiation of novobiocin-induced antibacterial activity against carbapenem-resistant Escherichia coli 107115 clinical isolate harboring mcr-1 gene assessed as novobiocin MIC at <= 7.1 uM incubated for 18 hrs by CLSI protocol based assay (reference value: 128 ug/ml); assay type: functional; details: Escherichia coli, 107115, 18 h
Acinetobacter baumannii [4] = experiment: Potentiation of novobiocin-induced antibacterial activity against wild type Acinetobacter baumannii ATCC 17978 assessed as novobiocin MIC at <= 7.1 uM incubated for 18 hrs by CLSI protocol based assay (reference value: 16 ug/ml); assay type: functional; details: ATCC 17978, 18 h
Pseudomonas aeruginosa [5] = experiment: Synergistic antibacterial activity against wild type Pseudomonas aeruginosa PAO1 assessed as potentiation of rifampicin-induced antibacterial effect incubated for 18 hrs by checkerboard assay; assay type: functional, organism-based
Pseudomonas aeruginosa [6] = experiment: Bactericidal activity against Pseudomonas aeruginosa PAO1 assessed as log reduction in colony forming units per ml at 7.1 uM in LB media after 24 hrs in presence of 50.4 uM novobiocin by time-kill assay; assay type: functional
Pseudomonas aeruginosa [7] = experiment: Potentiation of novobiocin-induced antibacterial activity against carbapenem and colistin-resistant Pseudomonas aeruginosa 114228 clinical isolate assessed as fold reduction in novobiocin MIC incubated for 18 hrs by CLSI protocol based assay relative to novobiocin MIC; assay type: functional
[8] = Toxicity in Galleria mellonella larvae assessed as survivability at 200 mg/kg measured every 6 hrs for 72 hrs; assay type: organism-based; details: in vivo
Pseudomonas aeruginosa [9] = experiment: Potentiation of novobiocin-induced antibacterial activity against colistin and carbapenem-resistant Pseudomonas aeruginosa 101243 clinical isolate assessed as novobiocin MIC at <= 7.1 uM incubated for 18 hrs by CLSI protocol based assay (reference value: 128 ug/ml); assay type: functional; details: Pseudomonas aeruginosa, 101243, 18 h
Escherichia coli [10] = experiment: Antibacterial activity against carbapenem-resistant Escherichia coli 107115 clinical isolate harboring mcr-1 gene incubated for 18 hrs by CLSI protocol based assay; assay type: functional; details: Escherichia coli, 107115, 18 h
Acinetobacter baumannii [11] = experiment: Potentiation of novobiocin-induced antibacterial activity against Acinetobacter baumannii 031 clinical isolate assessed as novobiocin MIC at <= 7.1 uM incubated for 18 hrs by CLSI protocol based assay (reference value: 8 ug/ml); assay type: functional; details: Acinetobacter baumannii, 031, 18 h
Escherichia coli [12] = experiment: Bactericidal activity against Escherichia coli ATCC […] assessed as log reduction in colony forming units per ml at 7.1 uM in LB media after 6 hrs in presence of 50.4 uM novobiocin by time-kill assay; assay type: functional
Acinetobacter baumannii [13] = experiment: Antibacterial activity against novobiocin and test compound-resistant Acinetobacter baumannii ATCC 17978 mutant generated from seven serial passages in presence of novobiocin by checkerboard assay; assay type: functional
Escherichia coli [14] = experiment: Potentiation of novobiocin-induced antibacterial activity against colistin-resistant Escherichia coli 94474 clinical isolate harboring mcr-1 gene assessed as novobiocin MIC at <= 7.1 uM incubated for 18 hrs by CLSI protocol based assay (reference value: 256 ug/ml); assay type: functional; details: Escherichia coli, 94474, 18 h
Pseudomonas aeruginosa [15] = experiment: Synergistic antibacterial activity against wild type Pseudomonas aeruginosa PAO1 assessed as potentiation of chloramphenicol-induced antibacterial effect incubated for 18 hrs by checkerboard assay; assay type: functional, organism-based
Enterobacter cloacae = experiment: Potentiation of novobiocin-induced antibacterial activity against Enterobacter cloacae 117029 clinical solate assessed as novobiocin MIC at <= 7.1 uM incubated for 18 hrs by CLSI protocol based assay (reference value: 1024 ug/ml); assay type: functional; details: Enterobacter cloacae, 117029, 18 h
Klebsiella pneumoniae [16] = experiment: Antibacterial activity against colistin-resistant Klebsiella pneumoniae 113250 clinical isolate incubated for 18 hrs by CLSI protocol based assay; assay type: functional; details: Klebsiella pneumoniae, 113250, 18 h
Acinetobacter baumannii [17] = experiment: Potentiation of novobiocin-induced antibacterial activity against Acinetobacter baumannii 031 clinical isolate assessed as fold reduction in novobiocin MIC incubated for 18 hrs by CLSI protocol based assay relative to novobiocin MIC; assay type: functional
Klebsiella pneumoniae [18] = experiment: Potentiation of novobiocin-induced antibacterial activity against colistin-resistant Klebsiella pneumoniae 113254 clinical isolate assessed as novobiocin MIC at <= 7.1 uM incubated for 18 hrs by CLSI protocol based assay (reference value: 256 ug/ml); assay type: functional; details: Klebsiella pneumoniae, 113254, 18 h
Acinetobacter baumannii [19] = experiment: Antibacterial activity against wild type Acinetobacter baumannii ATCC 17978 by checkerboard assay; assay type: functional
Pseudomonas aeruginosa [20] = experiment: Synergistic antibacterial activity against wild type Pseudomonas aeruginosa PAO1 assessed as potentiation of moxifloxacin-induced antibacterial effect incubated for 18 hrs by checkerboard assay relative to moxifloxacin alone; assay type: functional
Klebsiella pneumoniae [21] = experiment: Antibacterial activity against Klebsiella pneumoniae 116381 clinical isolate incubated for 18 hrs by CLSI protocol based assay; assay type: functional; details: Klebsiella pneumoniae, 116381, 18 h
Pseudomonas aeruginosa [22] = experiment: Potentiation of novobiocin-induced antibacterial activity against carbapenem-resistant Pseudomonas aeruginosa 264-104354 clinical isolate assessed as fold reduction in novobiocin MIC incubated for 18 hrs by CLSI protocol based assay relative to novobiocin MIC; assay type: functional
Pseudomonas aeruginosa [23] = experiment: Potentiation of novobiocin-induced antibacterial activity against carbapenem-resistant Pseudomonas aeruginosa 260-97103 clinical isolate assessed as novobiocin MIC at <= 7.1 uM incubated for 18 hrs by CLSI protocol based assay (reference value: 256 ug/ml); assay type: functional; details: 260-97103, 18 h
Pseudomonas aeruginosa [24] = experiment: Potentiation of novobiocin-induced antibacterial activity against carbapenem-resistant Pseudomonas aeruginosa 101885 clinical isolate assessed as novobiocin MIC at <= 7.1 uM incubated for 18 hrs by CLSI protocol based assay (reference value: 1024 ug/ml); assay type: functional; details: Pseudomonas aeruginosa, 101885, 18 h
Pseudomonas aeruginosa [25] = experiment: Antibacterial activity against mexAB-oprM/mexCD-oprJ/mexEF-oprN/mexJK/mexXY/opmH mutant deficient Pseudomonas aeruginosa PAO750 incubated for 18 hrs by CLSI protocol based assay; assay type: functional; details: PAO750, 18 h
Pseudomonas aeruginosa [26] = experiment: Antibacterial activity against carbapenem and colistin-resistant Pseudomonas aeruginosa 114228 clinical incubated for 18 hrs by CLSI protocol based assay B84; assay type: functional; details: Pseudomonas aeruginosa, 114228, 18 h
Pseudomonas aeruginosa [27] = experiment: Synergistic antibacterial activity against wild type Pseudomonas aeruginosa PAO1 assessed as potentiation of ceftazidime-induced antibacterial effect incubated for 18 hrs by checkerboard assay relative to ceftazidime alone; assay type: functional
Acinetobacter baumannii [28] = experiment: Potentiation of novobiocin-induced antibacterial activity against Acinetobacter baumannii LAC-4 clinical isolate assessed as novobiocin MIC at <= 7.1 uM incubated for 18 hrs by CLSI protocol based assay (reference value: 8 ug/ml); assay type: functional; details: LAC-4, 18 h
Pseudomonas aeruginosa [29] = experiment: Antibacterial activity against carbapenem-resistant Pseudomonas aeruginosa 264-104354 clinical isolate incubated for 18 hrs by CLSI protocol based assay; assay type: functional; details: 264-104354, 18 h
Pseudomonas aeruginosa [30] = experiment: Synergistic antibacterial activity against wild type Pseudomonas aeruginosa PAO1 assessed as potentiation of cefotaxime-induced antibacterial effect incubated for 18 hrs by checkerboard assay; assay type: functional, organism-based
Pseudomonas aeruginosa [31] = experiment: Synergistic antibacterial activity against wild type Pseudomonas aeruginosa PAO1 assessed as potentiation of fosfomycin-induced antibacterial effect incubated for 18 hrs by checkerboard assay relative to fosfomycin alone; assay type: functional

SMILES: NC[C@H]1O[C@H](O[C@H]2[C@H](OCCCCc3cn(CCCCO[C@@H]4[C@@H](O[C@H]5O[C@H](CO)[C@@H](O)[C@H](N)[C@H]5O)[C@H](N)C[C@H](N)[C@H]4O[C@H]4O[C@H](CN)[C@@H](O)C[C@H]4N)nn3)[C@@H](O[C@H]3O[C@H](CO)[C@@H](O)[C@H](N)[C@H]3O)[C@H](N)C[C@@H]2N)[C@H](N)C[C@@H]1O.O=C(O)C(F)(F)F.O=C(O)C(F)(F)F.O=C(O)C(F)(F)F.O=C(O)C(F)(F)F.O=C(O)C(F)(F)F.O=C(O)C(F)(F)F.O=C(O)C(F)(F)F.O=C(O)C(F)(F)F.O=C(O)C(F)(F)F.O=C(O)C(F)(F)F
- fold change (FC) (Pseudomonas aeruginosa [1]): 4 - 128
- fold change (FC) (Acinetobacter baumannii [2]): 4
- MIC (Escherichia coli [3]): 8 µg/mL
- MIC (Acinetobacter baumannii [4]): 0.5 µg/mL
- Activity (Pseudomonas aeruginosa [5]): Dose-dependent effect
- Activity (Pseudomonas aeruginosa [6]): -9.48 CFU/ml
- Ratio (Pseudomonas aeruginosa [7]): 32
- Activity [8]: Non-Toxic
- MIC (Pseudomonas aeruginosa [9]): 1 µg/mL
- MIC (Escherichia coli [10]): > 128 µg/mL
- MIC (Acinetobacter baumannii [11]): 0.5 µg/mL
- Activity (Escherichia coli [12]): -5 CFU/ml
- MIC (Acinetobacter baumannii [13]): 16 µg/mL
- MIC (Escherichia coli [14]): 16 µg/mL
- Activity (Pseudomonas aeruginosa [15]): Dose-dependent effect
- MIC (Enterobacter cloacae): 8 µg/mL
- MIC (Klebsiella pneumoniae [16]): > 128 µg/mL
- Ratio (Acinetobacter baumannii [17]): 16
- MIC (Klebsiella pneumoniae [18]): 16 µg/mL
- MIC (Acinetobacter baumannii [19]): 0.5 µg/mL
- fold change (FC) (Pseudomonas aeruginosa [20]): 4 - 128
- MIC (Klebsiella pneumoniae [21]): > 128 µg/mL
- Ratio (Pseudomonas aeruginosa [22]): 64
- MIC (Pseudomonas aeruginosa [23]): 1 µg/mL
- MIC (Pseudomonas aeruginosa [24]): 8 µg/mL
- MIC (Pseudomonas aeruginosa [25]): > 128 µg/mL
- MIC (Pseudomonas aeruginosa [26]): > 128 µg/mL
- fold change (FC) (Pseudomonas aeruginosa [27]): 4 - 128
- MIC (Acinetobacter baumannii [28]): 0.5 µg/mL
- MIC (Pseudomonas aeruginosa [29]): > 128 µg/mL
- Activity (Pseudomonas aeruginosa [30]): Dose-dependent effect
- fold change (FC) (Pseudomonas aeruginosa [31]): 4 - 128
